From patent US10316017B2, “COT modulators and methods of use thereof” (Gilead Sciences, Inc., priority 2015, dated 2019)
Where two headings read alike, the source gives them in different places.

Key:
[1] = tested on: TNFα production in LPS-stimulated human monocytes; test: Cot Monocyte TNFα Cell Based Assay; settings: Homo sapiens, Monocyte, read-out: EC50 TNF
Procedure, shortened: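 Human monocytes (5,000 cells/well) pretreated with compound for 1 hour at 37° C (0.5% DMSO), then stimulated with 50 pg/ml LPS for 4 hours. Total TNFα measured by TR-FRET after overnight antibody incubation at room temp, expressed as percent of control between unstimulated and stimulated cells.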

[2] = target: T1, human Cot catalytic domain (30-397 amino acids) (Homo sapiens, UniProt P41279); test: High Throughput Cot Biochemical Assay (KinEASE TR-FRET); settings: Cot KinEASE TR-FRET (HTRF) biochemical assay, 400 μM ATP; read-out: IC50 HTRF
T1 construct: Purified recombinant human Cot catalytic domain (30-397 amino acids) was purchased from Cama Biosciences; purchased Cama Biosciences (so in the source)
T1 sequence (P41279 30-397): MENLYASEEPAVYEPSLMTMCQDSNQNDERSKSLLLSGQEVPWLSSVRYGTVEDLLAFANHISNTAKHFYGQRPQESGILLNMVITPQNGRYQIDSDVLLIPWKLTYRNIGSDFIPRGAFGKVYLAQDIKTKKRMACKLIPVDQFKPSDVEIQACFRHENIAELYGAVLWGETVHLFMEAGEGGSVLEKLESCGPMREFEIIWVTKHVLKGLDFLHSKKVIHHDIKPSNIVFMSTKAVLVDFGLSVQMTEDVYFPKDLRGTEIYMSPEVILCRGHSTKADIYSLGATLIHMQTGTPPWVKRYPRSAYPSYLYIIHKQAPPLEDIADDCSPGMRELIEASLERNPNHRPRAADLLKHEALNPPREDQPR
Procedure, shortened: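 Recombinant human Cot catalytic domain (aa 30-397), 5 nM, with 1 μM STK3 peptide and 400 μM ATP in MOPS pH 7.0 buffer with MgOAc, DTT, BSA, NP-40, glycerol, 0.1% DMSO. Phosphorylated XL665-peptide detected by Eu-[…] antibody TR-FRET.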

[3] = TNFα in LPS-stimulated human monocytes

SMILES | EC50 [1, 3] | IC50 [2] | EC50 [1]
[2H][C@@](Nc1cc(Cl)c2ncc(C#N)c(N[C@@H]3CCCC[C@@H]3NC(=O)OC(C)(C)C)c2c1)(c1ccc(F)cc1)c1cn(C2CC2)nn1 [Example 229, tert-butyl ((1S,2R)-2-((8-chloro-3-cyano-6-(((S)-(1-cyclopropyl-1H-1,2,3-triazo1-4-yl)(4-fluorophenyl)methyl-d)amino)quinolin-4-yl)amino)cyclohexyl) carbamate] | > 10000 nM | 2610 nM | 
[2H][C@](Nc1cc(Cl)c2ncc(C#N)c(N[C@H]3CCCC[C@H]3N)c2c1)(c1ccc(F)cc1)c1cn(C2CC2)nn1 [Example 230, 4-(((1S,2R)-2-aminocyclohexyl)amino)-8-chloro-6-(((S)-(1-cyclopropyl-1H-1,2,3-triazol-4-yl)(4-fluorophenyl)methyl-d)amino)quinoline-3-carbonitrile] | > 10000 nM | 337 nM | 
[2H][C@](Nc1cc(C2CC2)c2ncc(C#N)c(NCC(C)(C)C)c2c1)(c1ccc(F)cc1)c1cn(C2CC2)nn1 [Example 232, (S)-8-cyclopropyl-6-(((1-cyclopropyl-1H-1,2,3-triazol-4-yl)(4-fluorophenyl)methyl-d)amino)-4-(neopentylamino)quinoline-3-carbonitrile] | 2440 nM | 215 nM | 
[2H][C@](Nc1cc(Cl)c2ncc(C#N)c(NCC(C)(C)C)c2c1)(c1cccc(C#N)c1)c1cn(C(C)(C)C)nn1 [Example 233, (S)-6-(((1-(tert-butyl)-1H-1,2,3-triazol-4-yl)(3-cyanophenyl)methyl-d)amino)-8-chloro-4-(neopentylamino)quinoline-3-carbonitrile] | 259 nM | 5 nM | 
[2H][C@](Nc1cc(Cl)c2ncc(C#N)c(N[C@H]3CCCC[C@@H]3CO)c2c1)(c1ccc(F)cc1)c1cn(C2CC2)nn1 [Example 234, 8-chloro-6-(((S)-(1-cyclopropyl-1H-1,2,3-triazol-4-yl)(4-fluorophenyl)methyl-d)amino)-4-(((1S,2S)-2-(hydroxymethyl)cyclohexyl)amino) quinoline-3-carbonitrile] | 5630 nM | 523 nM | 
[2H][C@](Nc1cc(Cl)c2ncc(C#N)c(N[C@@H]3CCCC[C@H]3CO)c2c1)(c1ccc(F)cc1)c1cn(C2CC2)nn1 [Example 235, 8-chloro-6-(((S)-(1-cyclopropyl-1H-1,2,3-triazol-4-yl)(4-fluorophenyl)methyl-d)amino)-4-(((1R,2R)-2-(hydroxymethyl)cyclohexyl)amino) quinoline-3-carbonitrile] | ≥ 10000 nM | 605 nM | 
[2H][C@](Nc1cc(Cl)c2ncc(C#N)c(N[C@H]3CCCC[C@@H]3O)c2c1)(c1ccc(F)cc1)c1cn(C2CC2)nn1 [Example 236, 8-chloro-6-(((S)-(1-cyclopropyl-1H-1,2,3-triazol-4-yl)(4-fluorophenyl)methyl-d)amino)-4-(((1S,2S)-2-hydroxycyclohexyl)amino) quinoline-3-carbonitrile] | 6630 nM | 294 nM | 
[2H][C@](Nc1cc(Cl)c2ncc(C#N)c(NCC[Si](C)(C)C)c2c1)(c1ccc(F)cc1)c1cn(C2CC2)nn1 [Example 237, (S)-8-chloro-6-(((1-cyclopropyl-1H-1,2,3-triazol-4-yl)(4-fluorophenyl)methyl-d)amino)-4-((2-(trimethylsilyl)ethyl)amino) quinoline-3-carbonitrile] |  | 231 nM | 5120 nM
[2H][C@@](Nc1cc(Cl)c2ncc(C#N)c(NCC(C)(C)C)c2c1)(c1cn(C2CC2)nn1)c1ccccc1C(F)F [Example 238, (S)-8-chloro-6-(((1-cyclopropyl-1H-1,2,3-triazol-4-yl)(2-(difluoromethyl)phenyl)methyl-d)amino)-4-(neopentylamino)quinoline-3-carbonitrile] | 162 nM | 12 nM | 
[2H]C([2H])(Nc1c(C#N)cnc2c(Cl)cc(N[C@@]([2H])(c3cccc(C#N)c3)c3cn(C4CC4)nn3)cc12)C(C)(C)C [Example 239, (S)-8-chloro-6-(((3-cyanophenyl)(1-cyclopropyl-1H-1,2,3-triazol-4-yl)methyl-d)amino)-4-((2,2-dimethylpropyl-1,1-d2)amino)quinoline-3-carbonitrile] | 55 nM | 2 nM | 
[2H][C@](Nc1cc(C#N)c2ncc(C#N)c(NCC(C)(C)C)c2c1)(c1cccc(C#N)c1)c1cn(C2CC2)nn1 [Example 240, (S)-6-(((3-cyanophenyl)(1-cyclopropyl-1H-1,2,3-triazol-4-yl)methyl-d)amino)-4-(neopentylamino)quinoline-3,8-dicarbonitrile] | 71 nM | 1 nM | 
[2H][C@](Nc1cc(Cl)c2ncc(C#N)c(NC3(C)CC3)c2c1)(c1ccc(F)cc1)c1cn(C2CC2)nn1 [Example 241, (S)-8-chloro-6-(((1-cyclopropyl-1H-1,2,3-triazol-4-yl)(4-fluorophenyl)methyl-d)amino)-4-((1-methylcyclopropyl)amino) quinoline-3-carbonitrile] | 5080 nM | 951 nM | 
[2H][C@](Nc1cc(C#N)c2ncc(C#N)c(N[C@H](CC)c3ccccc3)c2c1)(c1cccc(C#N)c1)c1cn(C2CC2)nn1 [Example 243, 6-(((S)-(3-cyanophenyl)(1-cyclopropyl-1H-1,2,3-triazol-4-yl)methyl-d)amino)-4-(((R)-1-phenylpropyl)amino)quinoline-3,8-dicarbonitrile] | 41 nM | 2 nM | 
[2H][C@](Nc1cc(Cl)c2ncc(C#N)c(N[C@@H](C)C(C)(C)C)c2c1)(c1ccc(F)cc1)c1cn(C2CC2)nn1 [Example 244, 8-chloro-6-(((S)-(1-cyclopropyl-1H-1,2,3-triazol-4-yl)(4-fluorophenyl)methyl-d)amino)-4-(((S)-3,3-dimethylbutan-2-yl)amino)quinoline-3-carbonitrile] | 5690 nM | 576 nM | 
[2H][C@](Nc1cc(Cl)c2ncc(C#N)c(NC34CC5CC(CC(C5)C3)C4)c2c1)(c1ccc(F)cc1)c1cn(C2CC2)nn1 [Example 245, 4-(((3R,5R,7R)-adamantan-1-yl)amino)-8-chloro-6-(((S)-(1-cyclopropyl-1H-1,2,3-triazol-4-yl)(4-fluorophenyl)methyl-d)amino)quinoline-3-carbonitrile] | 557 nM | 46 nM | 
[2H][C@](Nc1cc(Cl)c2ncc(C#N)c(NC3C4CC5CC(C4)CC3C5)c2c1)(c1ccc(F)cc1)c1cn(C2CC2)nn1 (stereo partly drawn) [Example 246, 4-(((1S,3S,5S,7S)-adamantan-2-yl)amino)-8-chloro-6-(((S)-(1-cyclopropyl-1H-1,2,3-triazol-4-yl)(4-fluorophenyl)methyl-d)amino)quinoline-3-carbonitrile] | 490 nM | 19 nM | 
[2H][C@](Nc1cc(Cl)c2ncc(C#N)c(N[C@H](CC#N)C(C)(C)C)c2c1)(c1ccc(F)cc1)c1cn(C2CC2)nn1 [Example 247, 8-chloro-4-(((R)-1-cyano-3,3-dimethylbutan-2-yl)amino)-6-(((S)-(1-cyclopropyl-1H-1,2,3-triazol-4-yl)(4-fluorophenyl)methyl-d)amino)quinoline-3-carbonitrile] | 635 nM | 28 nM | 
[2H][C@](Nc1cc(Cl)c2ncc(C#N)c(N[C@@H](CCC#N)c3ccccc3)c2c1)(c1ccc(F)cc1)c1cn(C2CC2)nn1 [Example 248, 8-chloro-4-(((S)-3-cyano-1-phenylpropyl)amino)-6-(((S)-(1-cyclopropyl-1H-1,2,3-triazol-4-yl)(4-fluorophenyl)methyl-d)amino)quinoline-3-carbonitrile] | > 10000 nM | 3200 nM | 
[2H][C@](Nc1cc(Cl)c2ncc(C#N)c(N[C@H](CCC#N)c3ccccc3)c2c1)(c1ccc(F)cc1)c1cn(C2CC2)nn1 [Example 249, 8-chloro-4-(((R)-3-cyano-1-phenylpropyl)amino)-6-(((S)-(1-cyclopropyl-1H-1,2,3-triazol-4-yl)(4-fluorophenyl)methyl-d)amino)quinoline-3-carbonitrile] | 21 nM | 1 nM | 
[2H][C@](Nc1cc(Cl)c2ncc(C#N)c(N[C@H](CC)c3ccccc3)c2c1)(c1cccc(C#N)c1)c1cn(C(C)(C)C)nn1 [Example 252, 6-(((S)-(1-(tert-butyl)-1H-1,2,3-triazol-4-yl)(3-cyanophenyl)methyl-d)amino)-8-chloro-4-(((R)-1-phenylpropyl)amino)quinoline-3-carbonitrile] | 80 nM | 5 nM | 
[2H][C@](Nc1cc(Cl)c2ncc(C#N)c(N[C@H](CC)c3ccccc3)c2c1)(c1ccc(F)cc1)c1cn(C(C)(C)C)nn1 [Example 253] | 214 nM | 16 nM | 
[2H][C@](Nc1cc(F)c2ncc(C#N)c(NC(CCC#N)c3ccccc3)c2c1)(c1cccc(C#N)c1)c1cn(C2CC2)nn1 (stereo partly drawn) [Example 254, 4-((3-cyano-1-phenylpropyl)amino)-6-(((S)-(3-cyanophenyl) (1-cyclopropyl-1H-1,2,3-triazo1-4-yl)methyl-d)amino)-8-fluoroquinoline-3-carbonitrile] | 42 nM | 3 nM | 
[2H][C@](Nc1cc(F)c2ncc(C#N)c(NC(CCC#N)c3ccccc3)c2c1)(c1ccc(F)cc1)c1cn(C2CC2)nn1 (stereo partly drawn) [Example 255, 4-((3-cyano-1-phenylpropyl)amino)-6-(((S)-(1-cyclopropyl-1H-1,2,3-triazol-4-yl)(4-fluorophenyl)methyl-d)amino)-8-fluoroquinoline-3-carbonitrile] | 62 nM | 5 nM | 
